Laboratory results from the supplement of paper PMC10307832.

Assays:
Assay in all cases: relative viability (nuclei count vs DMSO), 5 days (fraction); higher = more cells survive
Alisertib + Pemetrexed = compound: COc1cc(Nc2ncc3c(n2)-c2ccc(Cl)cc2C(c2c(F)cccc2OC)=NC3)ccc1C(=O)O [Alisertib] + Nc1nc2[nH]cc(CCc3ccc(C(=O)N[C@@H](CCC(=O)O)C(=O)O)cc3)c2c(=O)[nH]1 [Pemetrexed] (partner 0.2 µM)
Method in brief: (§1)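 Lung cancer cell lines in 1536-well plates were dosed by pin tool the day after seeding, either with one drug alone or with a fixed anchor-drug dose plus five library-drug doses (not always all listed) in √10 steps. After 5 days, cells were fixed and their nuclei stained in one step (final 0.05% Triton X-100, 1% formaldehyde, 1 ug/ml Hoechst), then counted on 4× images. Relative viability is the nuclei count in treated wells divided by that in vehicle wells. Values are medians of duplicate plates.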

Alisertib + OSI-027 = compound: COc1cc(Nc2ncc3c(n2)-c2ccc(Cl)cc2C(c2c(F)cccc2OC)=NC3)ccc1C(=O)O [Alisertib] + COc1cccc2cc(-c3nc([C@H]4CC[C@H](C(=O)O)CC4)n4ncnc(N)c34)[nH]c12 [OSI-027] (partner 0.5 µM)
Method in brief: as §1

Alisertib + Foretinib = compound: COc1cc(Nc2ncc3c(n2)-c2ccc(Cl)cc2C(c2c(F)cccc2OC)=NC3)ccc1C(=O)O [Alisertib] + COc1cc2c(Oc3ccc(NC(=O)C4(C(=O)Nc5ccc(F)cc5)CC4)cc3F)ccnc2cc1OCCCN1CCOCC1 [Foretinib] (partner 0.25 µM)
Method in brief: as §1

Alisertib + AZD7762 = compound: COc1cc(Nc2ncc3c(n2)-c2ccc(Cl)cc2C(c2c(F)cccc2OC)=NC3)ccc1C(=O)O [Alisertib] + NC(=O)Nc1cc(-c2cccc(F)c2)sc1C(=O)N[C@H]1CCCNC1 [AZD7762] (partner 0.2 µM)
Method in brief: as §1

| Cell Line | relative viability (Alisertib + Pemetrexed; first compound 0.005 µM) | relative viability (Alisertib + Pemetrexed; first compound 0.01581 µM) | relative viability (Alisertib + Pemetrexed; first compound 0.05 µM) | relative viability (Alisertib + Pemetrexed; first compound 0.1581 µM) | relative viability (Alisertib + Pemetrexed; first compound 0.5 µM) | relative viability (Alisertib + OSI-027; first compound 0.005 µM) | relative viability (Alisertib + OSI-027; first compound 0.01581 µM) | relative viability (Alisertib + OSI-027; first compound 0.05 µM) | relative viability (Alisertib + OSI-027; first compound 0.1581 µM) | relative viability (Alisertib + OSI-027; first compound 0.5 µM) | relative viability (Alisertib + Foretinib; first compound 0.005 µM) | relative viability (Alisertib + Foretinib; first compound 0.01581 µM) | relative viability (Alisertib + Foretinib; first compound 0.05 µM) | relative viability (Alisertib + Foretinib; first compound 0.1581 µM) | relative viability (Alisertib + Foretinib; first compound 0.5 µM) | relative viability (Alisertib + AZD7762; first compound 0.005 µM) | relative viability (Alisertib + AZD7762; first compound 0.01581 µM) | relative viability (Alisertib + AZD7762; first compound 0.05 µM) | relative viability (Alisertib + AZD7762; first compound 0.1581 µM) | relative viability (Alisertib + AZD7762; first compound 0.5 µM) |
| --- | --- | --- | --- | --- | --- | --- | --- | --- | --- | --- | --- | --- | --- | --- | --- | --- | --- | --- | --- | --- |
| NCI-H1650 | 0.402 | 0.362 | 0.256 | 0.223 | 0.189 | 0.565 | 0.501 | 0.278 | 0.108 | 0.166 | 1.19 | 0.873 | 0.653 | 0.23 | 0.231 |  |  |  |  |  |
| EBC-1 |  |  |  |  |  |  |  |  |  |  | 0.109 | 0.103 | 0.08 | 0.0764 | 0.0821 |  |  |  |  |  |
| SW 1573 | 0.781 | 0.767 | 0.269 | 0.21 | 0.114 | 0.556 | 0.5 | 0.284 | 0.148 | 0.102 | 0.911 | 0.772 | 0.667 | 0.245 | 0.172 |  |  |  |  |  |
| NCI-H661 | 0.868 | 0.858 | 0.636 | 0.46 | 0.324 | 0.667 | 0.557 | 0.438 | 0.282 | 0.285 | 0.995 | 1.04 | 0.813 | 0.423 | 0.369 |  |  |  |  |  |
| SK-MES-1 | 0.904 | 0.787 | 0.661 | 0.442 | 0.191 | 0.563 | 0.572 | 0.276 | 0.21 | 0.117 | 0.779 | 0.928 | 0.74 | 0.233 | 0.189 |  |  |  |  |  |
| NCI-H1792 | 0.674 | 0.346 | 0.203 | 0.0756 | 0.0468 | 0.665 | 0.622 | 0.399 | 0.257 | 0.178 |  |  |  |  |  | 0.571 | 0.343 | 0.135 | 0.0427 | 0.0721 |
| UMC-11 | 0.602 | 0.26 | 0.196 | 0.18 | 0.175 | 0.328 | 0.219 | 0.165 | 0.175 | 0.189 | 0.648 | 0.263 | 0.189 | 0.195 | 0.168 |  |  |  |  |  |
| A549 |  |  |  |  |  |  |  |  |  |  | 0.977 | 0.492 | 0.209 | 0.0402 | 0.0374 |  |  |  |  |  |
| NCI-H1703 |  |  |  |  |  |  |  |  |  |  | 0.313 | 0.379 | 0.29 | 0.248 | 0.201 | 0.119 | 0.134 | 0.115 | 0.0952 | 0.0979 |
| NCI-H520 | 0.653 | 0.491 | 0.346 | 0.273 | 0.253 | 0.253 | 0.221 | 0.204 | 0.18 | 0.182 | 1.15 | 0.644 | 0.486 | 0.266 | 0.322 |  |  |  |  |  |
| NCI-H1563 | 0.806 | 0.807 | 0.683 | 0.543 | 0.663 | 0.742 | 0.768 | 0.684 | 0.695 | 0.54 | 0.908 | 0.833 | 0.846 | 0.818 | 0.607 |  |  |  |  |  |
| NCI-H2009 | 0.959 | 0.987 | 0.724 | 0.475 | 0.168 | 0.497 | 0.587 | 0.334 | 0.233 | 0.152 | 1.19 | 1.05 | 0.618 | 0.429 | 0.248 |  |  |  |  |  |
